Patent US10472341B2, “Bicyclic tetrahydrothiazepine derivatives useful for the treatment of neoplastic and/or infectious diseases” (APEIRON BIOLOGICS AG, priority 2015, dated 2019)

Key:
K562 leukemia cells = test: Living tumor cells (K562) in the presence of NK cells; type: cell-based, human
Procedure: (§1) Isolated PBMCs, NK cells or CD8 positive cells were plated in Xvivo medium at 1.5*10^5 cells per in 96 well culture plates in the presence of 0.3*10^4 tumor cells where indicated. Cytokine secretion was determined by ELISA, immune cell activation (using Beckman-Coulter Abs CD25-PC5, CD69-PC7), cell viability and numbers by flow cytometry (Beckman-Coulter FC500 or Gallios) using 7-AAD exclusion as criterion for living cells. NK cells were isolated from PBMCs and were incubated with and without compounds, either alone or in co-culture with K562 leukemia cells.

[1] = system: NK cells & K562 leukemia cells; test: NK cells alone or in co-culture with K562 leukemia cells: IFN-gamma, TNF-alpha, granzyme, CD25+CD69+; type: cell-based, human
Procedure: as §1, with “living cells. One of the physiological functions of NK cells in anti-tumor immunity is the recognition and destruction of tumor cells that have a low expression of MHC-molecules, thus avoiding recognition by CD8 T cells. Downregulation of MHC molecules is often actively mediated by an infecting virus or occurs during development of malignant neoplasms. The […] leukemia cell line expresses only very low amounts of MHC-molecules and thus is often used as a model system to investigate anti-tumor NK cell reactivity. NK cells” for “living cells. NK cells”

CC(C)NC(=O)c1cc2c(cc1F)S(=O)(=O)C[C@H](N)C(=O)N2Cc1ccc(Cl)cc1.Cl [Example 77, (3R)-3-amino-5-[(4-chlorophenyl)methyl]-8-fluoro-1,1,4-trioxo-N-(propan-2-yl)-2,3,4,5-tetrahydro-1λ^6,5-benzothiazepine-7-carboxamide hydrochloride]
Living tumor cells (K562 leukemia cells; K562 only, 0.3 μM): 31786.33 | Living tumor cells (K562 leukemia cells; K562 only, 3 μM): 21495.00 | Living tumor cells (K562 leukemia cells; K562 only, 30 μM): 22503.00 | Living tumor cells (K562 leukemia cells; NK cells & K562, 0.01 μM): 696.00 | Living tumor cells (K562 leukemia cells; NK cells & K562, 0.03 μM): 636.00 | Living tumor cells (K562 leukemia cells; NK cells & K562, 0.1 μM): 567.00 | Living tumor cells (K562 leukemia cells; NK cells & K562, 0.3 μM): 589.00 | Living tumor cells (K562 leukemia cells; NK cells & K562, 1 μM): 520.33 | Living tumor cells (K562 leukemia cells; NK cells & K562, 3 μM): 406.33 | Living tumor cells (K562 leukemia cells; NK cells & K562, 10 μM): 398.33 | Living tumor cells (K562 leukemia cells; NK cells & K562, 30 μM): 408.33 | IFN-gamma [ng/ml] Avg ([1]; 0.03 μM, NK cells & K562): 2.20 ng/mL | TNF-alpha [ng/ml] avg ([1]; 0.03 μM, NK cells & K562): 0.08 ng/mL | IFN-gamma [ng/ml] Avg ([1]; 0.03 μM, NK cells only): below | TNF-alpha [ng/ml] avg ([1]; 0.03 μM, NK cells only): below | IFN-gamma [ng/ml] Avg ([1]; 0.1 μM, NK cells & K562): 2.38 ng/mL | TNF-alpha [ng/ml] avg ([1]; 0.1 μM, NK cells & K562): 0.11 ng/mL | IFN-gamma [ng/ml] Avg ([1]; 0.1 μM, NK cells only): below | TNF-alpha [ng/ml] avg ([1]; 0.1 μM, NK cells only): below | IFN-gamma [ng/ml] Avg ([1]; 0.3 μM, NK cells & K562): 6.06 ng/mL | TNF-alpha [ng/ml] avg ([1]; 0.3 μM, NK cells & K562): 0.19 ng/mL | IFN-gamma [ng/ml] Avg ([1]; 0.3 μM, NK cells only): below | TNF-alpha [ng/ml] avg ([1]; 0.3 μM, NK cells only): below | IFN-gamma [ng/ml] Avg ([1]; 1 μM, NK cells & K562): 11.75 ng/mL | TNF-alpha [ng/ml] avg ([1]; 1 μM, NK cells & K562): 0.34 ng/mL | IFN-gamma [ng/ml] Avg ([1]; 1 μM, NK cells only): below | TNF-alpha [ng/ml] avg ([1]; 1 μM, NK cells only): below | IFN-gamma [ng/ml] Avg ([1]; 3 μM, NK cells & K562): 12.11 ng/mL | TNF-alpha [ng/ml] avg ([1]; 3 μM, NK cells & K562): 0.47 ng/mL | IFN-gamma [ng/ml] Avg ([1]; 3 μM, NK cells only): below | TNF-alpha [ng/ml] avg ([1]; 3 μM, NK cells only): below | IFN-gamma [ng/ml] Avg ([1]; 10 μM, NK cells & K562): 17.15 ng/mL | TNF-alpha [ng/ml] avg ([1]; 10 μM, NK cells & K562): 0.57 ng/mL | IFN-gamma [ng/ml] Avg ([1]; 10 μM, NK cells only): below | TNF-alpha [ng/ml] avg ([1]; 10 μM, NK cells only): below | IFN-gamma [ng/ml] Avg ([1]; 30 μM, NK cells & K562): 19.12 ng/mL | TNF-alpha [ng/ml] avg ([1]; 30 μM, NK cells & K562): 0.70 ng/mL | IFN-gamma [ng/ml] Avg ([1]; 30 μM, NK cells only): below | TNF-alpha [ng/ml] avg ([1]; 30 μM, NK cells only): below | CD25+CD69+ ([1]; NK cells & K562, 0.03 μM): 1.77 % gated | Granzyme ([1]; NK cells & K562, 0.03 μM): 0.48 ng/mL | CD25+CD69+ ([1]; NK cells & K562, 0.1 μM): 2.29 % gated | Granzyme ([1]; NK cells & K562, 0.1 μM): 0.52 ng/mL | CD25+CD69+ ([1]; NK cells & K562, 0.3 μM): 4.44 % gated | Granzyme ([1]; NK cells & K562, 0.3 μM): 0.68 ng/mL | CD25+CD69+ ([1]; NK cells & K562, 1 μM): 10.74 % gated | Granzyme ([1]; NK cells & K562, 1 μM): 0.90 ng/mL | CD25+CD69+ ([1]; NK cells & K562, 3 μM): 13.55 % gated | Granzyme ([1]; NK cells & K562, 3 μM): 1.15 ng/mL | CD25+CD69+ ([1]; NK cells & K562, 10 μM): 17.81 % gated | Granzyme ([1]; NK cells & K562, 10 μM): 1.41 ng/mL | CD25+CD69+ ([1]; NK cells & K562, 30 μM): 25.06 % gated | Granzyme ([1]; NK cells & K562, 30 μM): 2.12 ng/mL | production of IFN-gamma and TNF-alpha ([1]; NK cells in co-culture with K562 leukemia cells): enhanced production of both cytokines specifically upon tumor cell contact | enhancement of IFN-gamma and TNF-alpha production ([1]; NK cells in the absence of tumor cells): such effect was not detected in the absence of tumor cells | CD25+CD69+ ([1]; NK cells only, 0.03 μM): 0.01 % gated | Granzyme ([1]; NK cells only, 0.03 μM): 0.08 ng/mL | CD25+CD69+ ([1]; NK cells only, 0.1 μM): 0.02 % gated | Granzyme ([1]; NK cells only, 0.1 μM): 0.06 ng/mL | CD25+CD69+ ([1]; NK cells only, 0.3 μM): 0.05 % gated | Granzyme ([1]; NK cells only, 0.3 μM): 0.08 ng/mL | CD25+CD69+ ([1]; NK cells only, 1 μM): 0.15 % gated | Granzyme ([1]; NK cells only, 1 μM): 0.05 ng/mL | CD25+CD69+ ([1]; NK cells only, 3 μM): 0.24 % gated | Granzyme ([1]; NK cells only, 3 μM): 0.05 ng/mL | CD25+CD69+ ([1]; NK cells only, 10 μM): 0.46 % gated | Granzyme ([1]; NK cells only, 10 μM): 0.10 ng/mL | CD25+CD69+ ([1]; NK cells only, 30 μM): 0.95 % gated | Granzyme ([1]; NK cells only, 30 μM): 0.16 ng/mL
